From US8716242B2, “β-hairpin peptidomimetics” (priority 2009, dated 2014)
Like-named read-outs stand apart in the source and are kept apart here. Bridge positions count the residues as written; N and C are the ends. Square brackets hold non-standard residues; d marks the D form. Peptide text beside a SMILES is read from it. * marks the point of attachment. Gly(Dodecyl) = CCCCCCCCCCCC[C@H](N)C(=O)O; Lauroyl = CCCCCCCCCCCC(=O)*; Decanoyl = CCCCCCCCCC(=O)*; Octanoyl = CCCCCCCC(=O)*; Dab = NCC[C@H](N)C(=O)O; X3 = CCCCCCCCCC*

Legend:
[1] = Plasma stability in human plasma; format: in vitro ADME; conditions: human plasma, 37° C.; for remaining at 24 h, 10 μM: 1440 min, read-out: human pl. cpd left at 1440 min; for human pl. T1/2: up to 1440 min
Method: (§1) Percent hemolysis was calculated as follows: (OD540peptide/OD540H2O)×100%. 2.6. Plasma Stability
(§2) The stability of the peptides in human and mouse plasma was determined by applying the following method: 346.5 μL/deep well of freshly thawed human plasma (Basler Blutspendedienst) and mouse plasma (Harlan Sera-Lab, UK), respectively, were spiked with 3.5 μL/well of compound dissolved in DMSO/H2O ([…] [v/v], 1 mM, triplicate) and incubated at 37° C. At t=0, 15, 30, 60, 120, 240 and 1440 min aliquots of 50 μL were transferred to filtration plate wells containing 150 μL/well of 2% formic acid in acetonitrile. Following shaking for 2 min the occurred suspensions were filtrated by vacuum and 50 μL of each filtrate was mixed with 100 μL of 1% formic acid in H2O. After transfer to a propylene microtiter plate, the filtrates were analyzed by LC/MS as follows: Column: Waters, XBridge C18, mobile phases: (A) water+0.1% formic acid and (B) acetonitrile/water, 95/5 (v/v)+0.1% formic acid, gradient: 5%-100% (B) in 2 minutes, electrospray ionization, MRM detection (triple quadrupole). The peak areas were determined and triplicate values are averaged. The stability is expressed in percent of the initial value at t=0. (tx/t0×100). By using the TREND function of EXCEL (Microsoft Office 2003) T1/2 were determined.

[2] = Cytotoxicity, MTT reduction assay, COS-7 cells; format: cell-based; conditions: African green monkey, COS-7 cells (CRL-1651), 12.5-50 μM
Method: (§3) Mouse pre-B cells were cultured in RPMI1640 plus 5% FBS, antibiotic/antimycotic, non essential amino acid, 50 μM β-mercaptoethanol and 1 mM natrium pyruvate. HELA cells were maintained in RPMI1640 plus 10% FBS, pen/strept and 2 mM L-glutamine. Cos-7 cells were grown in DMEM medium with […] glucose supplemented with 10% FCS, pen/strept and 2 mM L-glutamine. All cell lines were grown at 37° C. at 5% CO2. Cell media, media supplements, PBS-buffer, HEPES, antibiotic/antimycotic, pen/strept, non essential amino acid, L-glutamine, β-mercaptoethanol and sera were purchased from Gibco (Pailsey, UK). All fine chemicals were supplied by Merck (Darmstadt, Germany).
(§4) The cytotoxicity of the peptides to HELA cells (Acc57) and COS-7 cells (CRL-1651) was determined using the MTT reduction assay (T. Mossman, J. Immunol. Meth. 1983, 65, 55-63; M. V. Berridge, A. S. Tan, Arch. Biochem. Biophys. 1993, 303, 474-482). Briefly, the method was as follows: 4000 HELA cells/well and 3400 COS-7 cells/well were seeded and grown in 96-well microtiter plates for 24 h at 37° C. at 5% CO2. Thereafter, time zero (Tz) was determined by MTT reduction (see below). The supernatant of the remaining wells was discarded, and fresh medium and compounds in serial dilutions (12.5, 25 and 50 μM, triplicates) were pipetted into the wells. After incubation of the cells for 48 h at 37° C. at 5% CO2 the supernatant was discarded again and 100 μL MTT reagent (0.5 mg/mL in RPMI1640 and DMEM, respectively)/well was added. Following incubation at 37° C. for 2-4 h the media were aspirated and the cells were spiked (100 μL isopropanol/well). The absorbance of the solubilized formazan was measured at 595 nm (OD595peptide). For each concentration averages were calculated from triplicates. The percentage of growth was calculated as follows: (OD595peptide-OD595Tz-OD595Empty well)/(OD595Tz-OD595Empty well)×100%. The GI50 (Growth Inhibition) concentrations were calculated for each peptide by using a trend line function for the concentrations (50, 25, 12.5 and 0 μM), the corresponding percentages and the value 50, (=TREND (C50: C0, %50:%0,50).

[3] = Cytotoxicity, MTT reduction assay, HELA cells; format: cell-based; conditions: human, HELA cells (Acc57), 12.5-50 μM
Method: as §3, §4

[4] = test system: human red blood cells (hRBC); assay: Hemolysis of human red blood cells; format: cell-based; conditions: 20% hRBC, 1 h, 37° C.
Method: The peptides were tested for their hemolytic activity against human red blood cells (hRBC). Fresh hRBC were washed three times with phosphate buffered saline (PBS) and centrifuged for 10 min at 2000×g. Compounds (100 μM) were incubated with 20% hRBC (v/v) for 1 h at 37° C. and shaking at 300 rpm. The final erythrocyte concentration was approximately 0.9×10^9 cells/mL. A value of 0% and 100% cell lyses, respectively, was determined by incubation of hRBC in the presence of PBS containing 0.001% acetic acid and 2.5% Triton X-100 in H2O, respectively. The samples were centrifuged, the supernatants were 8-fold diluted in PBS buffer and the optical densities (OD) were measured at 540 nm. The 100% lyses value (OD540H2O) gave an OD540 of approximately 0.5-1.0.
as §1

[5] = Plasma stability in mouse plasma; format: in vitro ADME; conditions: mouse plasma, 37° C.; for remaining at 24 h, 10 μM: 1440 min, read-out: mouse pl. cpd left at 1440 min
Method: as §1, §2

human CXCR4 = target: T1, human CXCR4 (Homo sapiens, UniProt P61073); assay: Ca2+-assay: CXCR4-antagonizing activity (SDF-1 induced calcium mobilization); format: cell-based
T1 construct: expressed in transfected cells; host or cells: mouse pre-B cell line 300-19
T1 sequence (P61073 whole entry): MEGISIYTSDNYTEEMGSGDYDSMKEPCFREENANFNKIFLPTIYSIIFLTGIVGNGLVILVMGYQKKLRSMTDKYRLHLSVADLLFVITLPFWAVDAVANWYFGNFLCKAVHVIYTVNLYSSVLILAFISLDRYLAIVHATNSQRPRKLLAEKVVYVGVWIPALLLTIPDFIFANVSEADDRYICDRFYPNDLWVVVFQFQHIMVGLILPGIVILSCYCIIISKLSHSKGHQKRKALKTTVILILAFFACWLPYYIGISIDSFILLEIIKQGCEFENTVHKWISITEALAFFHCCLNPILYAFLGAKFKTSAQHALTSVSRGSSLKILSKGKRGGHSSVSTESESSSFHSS
From the text: 2.3. Ca^2+-Assay: CXCR4-Antagonizing Activity of the Peptides
Increases in intracellular calcium were monitored using a Flexstation 384 (Molecular Devices, Sunnyvale, Calif.) to assay the peptides for CXCR4 antagonism in a mouse pre-B cell line 300-19 stably transfected with human CXCR4 (E. Oberlin, A. Amara, F. Bachelerie, C. Bessia, J.-L. Virelizier, F. Arenzana-Seisdedos, O, Schwartz, J.-M. Heard, I. Clark-Lewis, D. F. Legler, M. Loetscher, M. Baggiolini, B. Moser, Nature 1996, 382, 833-835; M. Loetscher, T. Geiser, T. O'Reilly, R. Zwalen, M. Baggiolini, B. Moser, J. Biol. Chem. 1994, 269, 232-237; M. D'Apuuo, A. Rolink, M. Loetscher, J. A. Hoxie, I. Clark-Lewis, F. Melchors, M. Baggiolini, B. Moser, Eur. J. Immunol. 1997, 27, 1788-1793). The cells were batch loaded with the Calcium 4 Assay kit (Molecular Devices) in assay buffer (Hanks Balanced salt solution [HBSS], 20 mM HEPES, pH 7.4, 0.1% BSA) for 1 h at room temperature and labeled cells were dispensed into black well assays plates (Costar No. 3603). Calcium mobilization induced by stromal-derived factor-1 (SDF-1) was measured in the Flexstation 384 (excitation: 485 nm; emission: 525 nm) for 90 seconds. Antagonist activity of peptides was determined by spiking the cells with compounds prior to SDF-1 addition. Dose response curves (compound concentration versus % maximum response for SDF-1) were determined for each antagonist and IC50 values were calculated by fitting the data to a four parameter logistic equation using SoftmaxPro 4.8 (Molecular Devices).

[6] = mouse pre-B cell line 300-19 transfected with human CXCR4, SDF-1 induced Ca2+ mobilization, read-out: IC50% [nM] ± SD, CXCR4 receptor

SMILES	remaining at 24 h, 10 μM [1] [%]	human pl. T1/2 [1] [h]	GI50 at 48 h [2] [µM]	GI50 at 48 h [3] [µM]	Hemolysis at 100 μM [4] [%]	remaining at 24 h, 10 μM [5] [%]	mouse pl. T1/2 ([5]; up to 1440 min) [h]	IC50 (human CXCR4; [6]) [nM]	half-life at 10 μM ([5]; up to 1440 min, read-out: mouse pl. T1/2) [h]	IC50 (human CXCR4) [nM]
CCCCCCCCCCCC(=O)NCC[C@@H]1NC(=O)[C@H](Cc2ccc(O)cc2)NC(=O)[C@@H]2CCCN2C(=O)[C@H]2CCCN2C(=O)[C@H](CCCCN)NC(=O)[C@H](CCC(N)=O)NC(=O)[C@H](Cc2ccc(O)cc2)NC(=O)[C@@H]2CSSC[C@H](NC(=O)[C@H](C)NC1=O)C(=O)N[C@@H](CCCNC(=N)N)C(=O)N[C@@H](C)C(=O)N1CCC[C@@H]1C(=O)N[C@@H](CCN)C(=O)N[C@@H](CCCNC(=N)N)C(=O)N[C@@H](Cc1ccc(O)cc1)C(=O)N2 [Ex. 1] (cyclo(Y[Dab](Lauroyl)ACRA[dP][Dab]RYCYQK[dP]P); disulfide 4-11)	87	24	> 50	> 28	2.6	77	24	94 ± 2.1	–	–
CCCCCCCCCCCC[C@@H]1NC(=O)[C@H](Cc2c[nH]cn2)NC(=O)[C@H](Cc2ccc(O)cc2)NC(=O)[C@@H]2CCCN2C(=O)[C@H]2CCCN2C(=O)[C@H](CCCCN)NC(=O)[C@H](CCC(N)=O)NC(=O)[C@H](Cc2ccc(O)cc2)NC(=O)[C@@H]2CSSC[C@H](NC1=O)C(=O)N[C@@H](CCCNC(=N)N)C(=O)N[C@@H](C)C(=O)N1CCC[C@@H]1C(=O)N[C@@H](CCN)C(=O)N[C@@H](CCCNC(=N)N)C(=O)N[C@@H](Cc1ccc(O)cc1)C(=O)N2 [Ex. 2] (cyclo(YH[Gly(Dodecyl)]CRA[dP][Dab]RYCYQK[dP]P); disulfide 4-11)	96	24	> 32	> 13	1.7	62	–	55.8 ± 6	23.4	–
CCCCCCCC(=O)NCCCC[C@@H]1NC(=O)[C@H](Cc2c[nH]cn2)NC(=O)[C@H](Cc2ccc(O)cc2)NC(=O)[C@@H]2CCCN2C(=O)[C@H]2CCCN2C(=O)[C@H](CCCCN)NC(=O)[C@H](CCC(N)=O)NC(=O)[C@H](Cc2ccc(O)cc2)NC(=O)[C@@H]2CSSC[C@H](NC1=O)C(=O)N[C@@H](CO)C(=O)N[C@@H](C)C(=O)N1CCC[C@@H]1C(=O)N[C@@H](CCN)C(=O)N[C@@H](CCCNC(=N)N)C(=O)N[C@@H](Cc1ccc(O)cc1)C(=O)N2 [Ex. 3] (cyclo(YHK(Octanoyl)CSA[dP][Dab]RYCYQK[dP]P); disulfide 4-11)	86	24	> 50	> 45	0.6	86	24	19.4 ± 13	–	–
CCCCCCCCCCCC(=O)NCC[C@@H]1NC(=O)[C@H](Cc2ccc(O)cc2)NC(=O)[C@@H]2CSSC[C@H](NC(=O)[C@H](C)NC(=O)[C@H](Cc3c[nH]cn3)NC(=O)[C@H](Cc3ccc(O)cc3)NC(=O)[C@@H]3CCCN3C(=O)[C@H]3CCCN3C(=O)[C@H](CCCCN)NC1=O)C(=O)N[C@@H](CCCNC(=N)N)C(=O)N[C@@H](C)C(=O)N1CCC[C@@H]1C(=O)N[C@@H](CCN)C(=O)N[C@@H](CCCNC(=N)N)C(=O)N[C@@H](Cc1ccc(O)cc1)C(=O)N2 [Ex. 11] (cyclo(YHACRA[dP][Dab]RYCY[Dab](Lauroyl)K[dP]P); disulfide 4-11)	82	24	> 50	> 29	0.7	–	–	7.3 ± 4.7	–	–
CCCCCCCCCC(=O)NCCCC[C@@H]1NC(=O)[C@H](Cc2ccc(O)cc2)NC(=O)[C@@H]2CSSC[C@H](NC(=O)[C@H]([C@@H](C)O)NC(=O)[C@H](Cc3c[nH]cn3)NC(=O)[C@H](Cc3ccc(O)cc3)NC(=O)[C@@H]3CCCN3C(=O)[C@H]3CCCN3C(=O)[C@H](CCCCN)NC1=O)C(=O)N[C@@H](CCCNC(=N)N)C(=O)NCC(=O)N1CCC[C@@H]1C(=O)N[C@@H](CCN)C(=O)N[C@@H](CCCNC(=N)N)C(=O)N[C@@H](Cc1ccc(O)cc1)C(=O)N2 [Ex. 15] (cyclo(YHTCRG[dP][Dab]RYCYK(Decanoyl)K[dP]P); disulfide 4-11)	73	24	> 40	> 50	0.6	–	–	11.2 ± 4	–	–
CCCCCCCCCCOC[C@@H]1NC(=O)[C@H](Cc2ccc(O)cc2)NC(=O)[C@@H]2CSSC[C@H](NC(=O)[C@H]([C@@H](C)O)NC(=O)[C@H](Cc3c[nH]cn3)NC(=O)[C@H](Cc3ccc(O)cc3)NC(=O)[C@@H]3CCCN3C(=O)[C@H]3CCCN3C(=O)[C@H](CCC(N)=O)NC1=O)C(=O)N[C@@H](CCCNC(=N)N)C(=O)NCC(=O)N1CCC[C@@H]1C(=O)N[C@@H](CCN)C(=O)N[C@@H](CCCNC(=N)N)C(=O)N[C@@H](Cc1ccc(O)cc1)C(=O)N2 [Ex. 30] (cyclo(YHTCRG[dP][Dab]RYCYS(X3)Q[dP]P); disulfide 4-11)	54	24	> 50	> 50	5.5	–	–	–	–	55.1 ± 19
